Laboratory results reported in patent US20210205413A1 (Nektar Therapeutics, priority 2018, published 2021).
Entries after “also recorded” stand apart in the source; their conditions may differ.

Key:
CD4+ and CD8+ T cells = assay: Phase I single ascending dose study in healthy volunteers: Tcon cells; format: in vivo, human
Procedure: A double-blind, randomized, placebo-controlled study is conducted to evaluate the safety, tolerability, pharmacokinetics, and pharmacodynamics of single ascending low sub-cutaneous doses of an RUR20kD-IL-2 composition (RUR20kD-IL-2) in healthy volunteers. […] Twelve subjects are randomized to each dose cohort, nine of whom received a single subcutaneous dose of RUR20kD-IL-2 while three received placebo. […] The drug product is supplied in single-use glass vials and stored at 2-8° C. […] Placebo is a commercially available 0.9% sodium chloride solution. A starting dose of 0.3 μg/kg is chosen using the minimally anticipated biological effect level (MABEL) approach and is supported by the no observed adverse effect level (NOAEL) in the most sensitive species from nonclinical toxicology studies.
The primary objective of the study is to evaluate the safety and tolerability of RUR20kD-IL-2 administered as a single subcutaneous dose. […] In a first phase of the study, immune markers are tested pre-dose up to 20 hours post-dose. Specifically, Tregs, CD4^+-T cells, CD8^+-T cells, natural killer (NK) cells, cytokines, soluble CD25, and RNA are tested in RUR20kD-IL-2- and placebo-receiving cohorts. In subsequent phases, the same immune markers are also tested at 4-, 5-, 6-, 7-, 8-, 10-, 12-, 15-, 18-, 20-, 25-, 30-, 40, and 50-days post-dose.

[1] = system: Balb/C mice (OVA food allergy model); assay: Food allergy model (OVA sensitization and oral challenge); format: in vivo
Procedure: To develop the DTH model, Balb/c mice are sensitized with a subcutaneous administration of a model antigen keyhole limpet hemocyanin (KLH) emulsified in complete and incomplete Freund's adjuvant. […] Inflamed ears are subjected to immunohistochemistry (IHC) to quantify percent of FoxP3+ Treg cells post KLH challenge. The specificity of response is assessed after an additional 3-4 weeks with no treatment by either KLH rechallenge or conducting sensitization and challenge with an unrelated antigen ovalbumin (OVA). […] Post ten days of 2nd sensitization, mice are challenged with OVA eight times orally, every alternative day. […] Severity of allergic response is assessed by clinical scoring within 30-45 min of post 8th challenge. Further, serum mast cell protease 1 (MCPT 1) and OVA specific IgE titers are quantified. The percent Treg is determined by flow cytometry in peripheral blood and in spleen.

MRL/MpJ-Faslpr mice = assay: Mouse model of systemic lupus erythematosus (SLE); format: in vivo
Procedure: The MRL/MpJ-Faslpr mouse model develops an autoimmune disease that reflects pathologies of human SLE, including lymph node enlargement, increased IgG levels, antinuclear antibody production, proteinuria, and kidney failure caused by inflammation of the glomeruli. […] On dosing days, a suitable quantity of test article is withdrawn and diluted with vehicle to arrive at the desired dosing concentration (0.03 mg/kg dose and 0.3 mg/kg dose); dose volume was 5 mL/kg. Animals used for the study are MRL/MpJ-Faslpr mice and MRL/MpJ naive, female mice, aged from 6-8 weeks. Animals are assigned to treatment groups by randomization. Treatment groups are described in Table 13 below. 45 MRL/MpJ-Faslpr mice are randomized into 3 groups (15 each for Groups 2-4) based on body weight and level of protein content in urine before the commencement of the experiment. Animals in Groups 2-4 receive vehicle or test article delivered subcutaneously as described in Table 6. Group 1-MRL/MpJ mice receive the vehicle as a negative control. Three (3) days after the first dose administration on Week 8, 3 mice from Groups 2-4 are humanely sacrificed and blood samples were collected and processed. Body weights are measured twice a week from the commencement of the study and continued throughout. Skin lesion pictures were taken when first observed and then at one week intervals. Urine is obtained the day before dosing (at baseline) and then collected weekly thereafter. Protein levels in the urine are measured using a Siemens Clinitek Status Analyzer. On sacrifice day (3 days after the last dose at the end of Week 20), all mice are anesthetized by intraperitoneal injection of chloral hydrate (50 mg/kg). Blood samples are collected, and centrifuged at 10000 r/min for 10 min to obtain serum samples. The serum is stored at −80° C. until clinical biochemistry testing. Serum samples (100 μl) are analyzed for anti-dsDNA level by ELISA (Mouse Anti-dsDNA IgG-specific ELISA Kit, Alpha Diagnostic International, Cat. No. 5120) and the serum tested for BUN concentration using a Hitachi 7020 Automatic Biochemistry Analyzer. For lymphocyte analysis, blood samples are collected in EDTA-K tubes and tested for CD3/CD4/CD8/Treg/NK/B cell % by flow cytometry. […] This study further elucidates the effect of RUR-IL-2-induced Tregs on control of the physiological immune response and disease progression in a representative animal model of SLE.

Tregs in human PBMC = assay: pSTAT5 induction in lymphocyte populations of human PBMC (flow cytometry, CyToF); format: cell-based; conditions: in vitro
Procedure: Impaired IL-2 production and regulatory T cell dysfunctions have been implicated as an immunological mechanism in multiple autoimmune diseases. While low-dose IL-2 can be used to stimulate Tregs for clinical benefit, poor pharmacokinetics necessitates daily delivery, adverse events are dose-limiting, and Treg increases are modest and short-lived. […] The affinity to the IL-2 receptor is assessed by surface plasmon resonance. Activity in human PBMC can be measured by pSTAT5 induction in multiple lymphocyte populations using flow cytometry and time-of-flight mass cytometry (CyToF). In vivo activity after subcutaneous administration in C57BL/6 mice or cynomolgus monkey is measured by changes in lymphocyte numbers and activation by flow cytometry. Ex vivo Treg function is determined by the inhibition of Tcon proliferation by isolated splenic Treg. Efficacy is assessed in a model of systemic lupus erythematosus (SLE) using MRL/MpJ-Faslpr mice. […] In mice, a single administration leads to sustained Treg mobilization for 7-10 days in blood and spleen without Tcon activation, an effect concomitant with induction of Treg activation markers and increased ex vivo suppressive capacity. […] Finally, an RUR20kD-IL-2 composition is efficacious in mouse models of SLE.

[2] = repeat administration over 12 weeks

(1,3-bis(methoxypoly(ethylene glycol)10kDcarbamoyl)-2-propanoxy)-4-butanamide)interleukin-2) [RUR20kD-IL-2]
absolute number of CD8+ T cells and percentage of Ki67+ CD8+ T cells (CD4+ and CD8+ T cells; single SC 13.5 μg/kg): small increases
percentage or numbers of T cell populations (CD4+, CD8+) (CD4+ and CD8+ T cells; single SC dose, any dose): no changes in percentage or numbers of T cell populations (CD4+, CD8+); also recorded: no changes in percentages or numbers of conventional CD4+ or CD8+ T cells
Tregs (flow cytometry, peripheral blood and spleen) ([1]; SC 0.1 mg/kg q3d×3): significant increase in Tregs
levels of MCPT1 and anti-OVA specific IgE titers ([1]; SC 0.1 mg/kg q3d×3): significant decrease in levels of MCPT1 and anti-OVA specific IgE titers
anaphylaxis symptoms (clinical scores) ([1]; SC 0.1 mg/kg q3d×3, repeated oral OVA): efficacious in decreasing the high degree of anaphylaxis symptoms
protein levels in urine (biomarker of kidney damage) (MRL/MpJ-Faslpr mice; 0.3 mg/kg s.c. twice weekly, week 8 to week 20): nearly the same levels as observed in normal mice
Treg elevation (MRL/MpJ-Faslpr mice; [2]): sustains Treg elevation
blood urea nitrogen (MRL/MpJ-Faslpr mice; [2]): reduces blood urea nitrogen
urine protein levels and kidney histopathology (MRL/MpJ-Faslpr mice; [2]): returns urine protein levels and kidney histopathology to normal
STAT5 phosphorylation in Tregs relative to other lymphocyte subsets (Tregs in human PBMC): increased STAT5 phosphorylation relative to other lymphocyte subsets
